From ChEMBL document CHEMBL3885881, “DrugMatrix”

Species on record: Rattus norvegicus
Assay: DrugMatrix - Regimen: Daily Repeat
Type: toxicity, organism-based, Sprague-Dawley
Design: regimen Daily Repeat, gender Male, age 6-8 weeks
Settings: in vivo, po, route oral GAVAGE, […]; for ABSOLUTE BASOPHIL / ABSOLUTE EOSINOPHIL / ABSOLUTE LYMPHOCYTE / ABSOLUTE MONOCYTE / ABSOLUTE SEGMENTED NEUTROPHIL / BASOPHIL / EOSINOPHIL / ERYTHROCYTE COUNT / HEMATOCRIT / HEMOGLOBIN / LEUKOCYTE COUNT / LYMPHOCYTE / MEAN CORPUSCULAR HEMOGLOBIN / MEAN CORPUSCULAR HEMOGLOBIN CONCENTRATION / MEAN CORPUSCULAR VOLUME / MONOCYTE / NEUTROPHIL / NUCLEATED RED BLOOD CELLS / PLATELET COUNT: tissue Blood; for ALANINE AMINOTRANSFERASE / ALBUMIN / ALKALINE PHOSPHATASE / ASPARTATE AMINOTRANSFERASE / BLOOD UREA NITROGEN / CARBON DIOXIDE / CHLORIDE / CHOLESTEROL / CREATINE PHOSPHOKINASE / CREATININE / GLUCOSE / LACTATE DEHYDROGENASE / LIPASE / PHOSPHORUS / POTASSIUM / SODIUM / TOTAL BILIRUBIN / TOTAL PROTEIN / URIC ACID: tissue Plasma
[1] = 2000 mg/kg, 72 h, dose level High, time 3 day
[2] = 2000 mg/kg, 120 h, dose level High, time 5 day
[3] = 72 h, dose 0.33 mg/Kg, dose level Low, time 3 day
[4] = 120 h, dose 0.33 mg/Kg, dose level Low, time 5 day

COc1ccc2[nH]cc(CCNC(C)=O)c2c1 [MELATONIN]
ABSOLUTE BASOPHIL [1]: 0 CELLS/uL | ABSOLUTE EOSINOPHIL [1]: 23.67 CELLS/uL | ABSOLUTE LYMPHOCYTE [1]: 9249.33 CELLS/uL | ABSOLUTE MONOCYTE [1]: 250.67 CELLS/uL | ABSOLUTE SEGMENTED NEUTROPHIL [1]: 1876.33 CELLS/uL | BASOPHIL [1]: 0% | EOSINOPHIL [1]: 0.33% | ERYTHROCYTE COUNT [1]: 5.38 x10E6/uL | HEMATOCRIT [1]: 32.93% | HEMOGLOBIN [1]: 13.5 G/DL | LEUKOCYTE COUNT [1]: 11.4 x10E3/uL | LYMPHOCYTE [1]: 82.33% | MEAN CORPUSCULAR HEMOGLOBIN [1]: 25.17 pg | MEAN CORPUSCULAR HEMOGLOBIN CONCENTRATION [1]: 41.03 G/DL | MEAN CORPUSCULAR VOLUME [1]: 61.27 fL | MONOCYTE [1]: 2% | NEUTROPHIL [1]: 15.33% | NUCLEATED RED BLOOD CELLS [1]: 0 /100WBC | PLATELET COUNT [1]: 1209.67 x10E3/uL | ALANINE AMINOTRANSFERASE [1]: 115 u/L | ALBUMIN [1]: 3.3 G/DL | ALKALINE PHOSPHATASE [1]: 505.67 u/L | ASPARTATE AMINOTRANSFERASE [1]: 128.33 u/L | BLOOD UREA NITROGEN [1]: 15 mg/dL | CARBON DIOXIDE [1]: 25.67 mmol/L | CHLORIDE [1]: 100.33 MEQ/L | CHOLESTEROL [1]: 84 mg/dL | CREATINE PHOSPHOKINASE [1]: 757.33 u/L | CREATININE [1]: 0.38 mg/dL | GLUCOSE [1]: 155 mg/dL | LACTATE DEHYDROGENASE [1]: 369.33 u/L | LIPASE [1]: 11.67 u/L | PHOSPHORUS [1]: 13.07 mg/dL | POTASSIUM [1]: 6.08 MEQ/L | SODIUM [1]: 140.4 MEQ/L | TOTAL BILIRUBIN [1]: 0.5 mg/dL | TOTAL PROTEIN [1]: 4.6 G/DL | URIC ACID [1]: 1.43 mg/dL | ABSOLUTE BASOPHIL [2]: 0 CELLS/uL | ABSOLUTE EOSINOPHIL [2]: 0 CELLS/uL | ABSOLUTE LYMPHOCYTE [2]: 18071 CELLS/uL | ABSOLUTE MONOCYTE [2]: 251 CELLS/uL | ABSOLUTE SEGMENTED NEUTROPHIL [2]: 1211.33 CELLS/uL | BASOPHIL [2]: 0% | EOSINOPHIL [2]: 0% | ERYTHROCYTE COUNT [2]: 6.07 x10E6/uL | HEMATOCRIT [2]: 38.13% | HEMOGLOBIN [2]: 15.13 G/DL | LEUKOCYTE COUNT [2]: 19.53 x10E3/uL | LYMPHOCYTE [2]: 92.67% | MEAN CORPUSCULAR HEMOGLOBIN [2]: 24.9 pg | MEAN CORPUSCULAR HEMOGLOBIN CONCENTRATION [2]: 39.7 G/DL | MEAN CORPUSCULAR VOLUME [2]: 62.77 fL | MONOCYTE [2]: 1.33% | NEUTROPHIL [2]: 6% | NUCLEATED RED BLOOD CELLS [2]: 0 /100WBC | PLATELET COUNT [2]: 1278.33 x10E3/uL | ALANINE AMINOTRANSFERASE [2]: 124.67 u/L | ALBUMIN [2]: 3.73 G/DL | ALKALINE PHOSPHATASE [2]: 553.33 u/L | ASPARTATE AMINOTRANSFERASE [2]: 154.67 u/L | BLOOD UREA NITROGEN [2]: 19 mg/dL | CARBON DIOXIDE [2]: 32 mmol/L | CHLORIDE [2]: 100.33 MEQ/L | CHOLESTEROL [2]: 99 mg/dL | CREATINE PHOSPHOKINASE [2]: 788.67 u/L | CREATININE [2]: 0.24 mg/dL | GLUCOSE [2]: 136 mg/dL | LACTATE DEHYDROGENASE [2]: 320.67 u/L | LIPASE [2]: 12.33 u/L | PHOSPHORUS [2]: 11.03 mg/dL | POTASSIUM [2]: 6.53 MEQ/L | SODIUM [2]: 142.13 MEQ/L | TOTAL BILIRUBIN [2]: 0.4 mg/dL | TOTAL PROTEIN [2]: 5.07 G/DL | URIC ACID [2]: 1.2 mg/dL | ABSOLUTE BASOPHIL [3]: 0 CELLS/uL | ABSOLUTE EOSINOPHIL [3]: 0 CELLS/uL | ABSOLUTE LYMPHOCYTE [3]: 12175.67 CELLS/uL | ABSOLUTE MONOCYTE [3]: 180.67 CELLS/uL | ABSOLUTE SEGMENTED NEUTROPHIL [3]: 1643.67 CELLS/uL | BASOPHIL [3]: 0% | EOSINOPHIL [3]: 0% | ERYTHROCYTE COUNT [3]: 5.39 x10E6/uL | HEMATOCRIT [3]: 34.47% | HEMOGLOBIN [3]: 13.5 G/DL | LEUKOCYTE COUNT [3]: 14 x10E3/uL | LYMPHOCYTE [3]: 87.33% | MEAN CORPUSCULAR HEMOGLOBIN [3]: 25.1 pg | MEAN CORPUSCULAR HEMOGLOBIN CONCENTRATION [3]: 39.17 G/DL | MEAN CORPUSCULAR VOLUME [3]: 64.03 fL | MONOCYTE [3]: 1.33% | NEUTROPHIL [3]: 11.33% | NUCLEATED RED BLOOD CELLS [3]: 0 /100WBC | PLATELET COUNT [3]: 1125.33 x10E3/uL | ALANINE AMINOTRANSFERASE [3]: 65 u/L | ALBUMIN [3]: 4 G/DL | ALKALINE PHOSPHATASE [3]: 447.33 u/L | ASPARTATE AMINOTRANSFERASE [3]: 76.67 u/L | BLOOD UREA NITROGEN [3]: 13.33 mg/dL | CARBON DIOXIDE [3]: 31 mmol/L | CHLORIDE [3]: 102 MEQ/L | CHOLESTEROL [3]: 74.33 mg/dL | CREATINE PHOSPHOKINASE [3]: 191.33 u/L | CREATININE [3]: 0.26 mg/dL | GLUCOSE [3]: 163.33 mg/dL | LACTATE DEHYDROGENASE [3]: 156.67 u/L | LIPASE [3]: 10.33 u/L | PHOSPHORUS [3]: 11.6 mg/dL | POTASSIUM [3]: 6.23 MEQ/L | SODIUM [3]: 142.1 MEQ/L | TOTAL BILIRUBIN [3]: 0.2 mg/dL | TOTAL PROTEIN [3]: 5.03 G/DL | URIC ACID [3]: 1.47 mg/dL | ABSOLUTE BASOPHIL [4]: 0 CELLS/uL | ABSOLUTE EOSINOPHIL [4]: 0 CELLS/uL | ABSOLUTE LYMPHOCYTE [4]: 12476.67 CELLS/uL | ABSOLUTE MONOCYTE [4]: 229.67 CELLS/uL | ABSOLUTE SEGMENTED NEUTROPHIL [4]: 1393.67 CELLS/uL | BASOPHIL [4]: 0% | EOSINOPHIL [4]: 0% | ERYTHROCYTE COUNT [4]: 5.39 x10E6/uL | HEMATOCRIT [4]: 32.43% | HEMOGLOBIN [4]: 13.13 G/DL | LEUKOCYTE COUNT [4]: 14.1 x10E3/uL | LYMPHOCYTE [4]: 88.33% | MEAN CORPUSCULAR HEMOGLOBIN [4]: 24.4 pg | MEAN CORPUSCULAR HEMOGLOBIN CONCENTRATION [4]: 40.53 G/DL | MEAN CORPUSCULAR VOLUME [4]: 60.23 fL | MONOCYTE [4]: 1.67% | NEUTROPHIL [4]: 10% | NUCLEATED RED BLOOD CELLS [4]: 0 /100WBC | PLATELET COUNT [4]: 1131.67 x10E3/uL | ALANINE AMINOTRANSFERASE [4]: 56.33 u/L | ALBUMIN [4]: 4.1 G/DL | ALKALINE PHOSPHATASE [4]: 363.67 u/L | ASPARTATE AMINOTRANSFERASE [4]: 76 u/L | BLOOD UREA NITROGEN [4]: 16 mg/dL | CARBON DIOXIDE [4]: 30 mmol/L | CHLORIDE [4]: 102 MEQ/L | CHOLESTEROL [4]: 64 mg/dL | CREATINE PHOSPHOKINASE [4]: 170.33 u/L | CREATININE [4]: 0.24 mg/dL | GLUCOSE [4]: 163 mg/dL | LACTATE DEHYDROGENASE [4]: 89.33 u/L | LIPASE [4]: 10.67 u/L | PHOSPHORUS [4]: 10.7 mg/dL | POTASSIUM [4]: 5.96 MEQ/L | SODIUM [4]: 142.07 MEQ/L | TOTAL BILIRUBIN [4]: 0.17 mg/dL | TOTAL PROTEIN [4]: 5.53 G/DL | URIC ACID [4]: 1.3 mg/dL
